Source: patent EP1151753B1, “PREVENTIVE AND THERAPEUTIC AGENTS FOR ARTERIOSCLEROSIS” (CCI CORPORATION, priority 1999, dated 2000)

Legend:
ICR mice = test: Test for acute toxicity; type: in vivo; details: 500 mg/kg orally, suspension in aqueous 5% gum arabic solution, visual inspection for one week
Procedure: The agent of this invention for preventing and curing arteriosclerosis was tested for acute toxicity with a view to confirming the safety. Groups each formed of three ICR mice aged 4 to 5 weeks were used for the test. The same TMG as mentioned above was suspended as the chromanol glucoside in an aqueous 5% gum arabic solution. The suspension was orally administered to the mice at a dosage of 500 mg/kg as reduced to TMG and the mice were kept under visual inspection for one week. To the control group, the aqueous 5% gum arabic solution was orally administered at a rate of 0.3 ml.

[1] = test system: cholesterol-loaded rabbits; test: Evaluation of morbid alteration of aorta (Sudan dyeing), cholesterol-loaded rabbit model; type: in vivo, New Zealand White (NZW) type rabbits; details: cholesterol-loaded NZW rabbits
From the text: (§1) In the test, female and male New Zealand White (NZW) type rabbits (SPF: Kitayama Labels K.K.) which were seven weeks old at the time of arrival at the laboratory were subjected to quarantine and two weeks' domestication and visually inspected as to the general condition and, after the absence of abnormality was confirmed, put to use. The body weights at the time of starting administration (at the age of nine weeks) were in the range of 1.8 - 2.2 kg in the case of male rabbits and in the range of 1.6 - 2.0 kg in the case of female rabbits. Throughout the entire duration of the test, the animals were raised as accommodated one each in hanger cages of aluminum installed on a stainless steel rack inside a clean feeding chamber set at a temperature in the range of 20 - 26°, a relative humidity in the range of 40 - 70%, a number of ventilations in the range of 10 - 20 turns/hour, and an illumination time within the range of 12 hours (7.00 - 19:00). They were fed on a commercially available radioactively sterilized solid feed (a product containing 1% of cholesterol, made by Oriental Kobo K.K. and sold under the product code of "RC4") and they were left freely drinking the tap water delivered by an automatic water supplying device.
The dosage of TMG was set at 800 mg/head/day. The TMG was solved in reagent grade ethanol. […]

[2] = Biochemical test of blood and measurement of body weight, cholesterol-loaded rabbit model; type: in vivo, New Zealand White (NZW) type rabbits; details: cholesterol-loaded NZW rabbits
Procedure: Now, the pharmacogenic effect of the agent of this invention for preventing and curing arteriosclerosis will be described specifically below with reference to a pharmacological test using high cholesterol-loaded rabbits and the WHHL (Watanabe heritable hyperlipidemic) rabbits forming a model of the familial high-cholesterol blood disease. The data were wholly reported by the average ± standard error (SE) and the significant differences among separate groups were determined by the Student's t-test. The risk factor, p < 0.05, was rated as forming a significance of difference.
as §1
The dosage of TMG was set at 800 mg/head/day. The TMG was solved in reagent grade ethanol. The produced solution was sprayed on the 1% cholesterol-containing feed and the wet feed was left drying in the air. A mixed feed was prepared so as to contain 800 mg of TMG per 100 g of the feed. The mixed feed was given to the rabbits every morning at a rate of 100 g/day per head for 12 weeks for the sake of attaining oral consumption of the TMG. The feed for the control group was obtained by spraying ethanol alone on a feed containing 1% cholesterol and air-drying the wet feed. It was given to the rabbits of the control group at a rate of 100 g/day per heat for 12 weeks.
A control group and a TMG-administration group were formed; the control group of a total of six heads composed of three males and three females and the TMG-administration group of a total of eight heads composed of four males and four females. These animals were apportioned to the two groups randomly and nevertheless elaborately so as to avoid confusion of the children of one brood in either group to the fullest possible extent and equalize as much as permissible the average body weights and the average total cholesterol numbers in blood serum of the two groups with the body weights and the total cholesterol numbers found at the time of completion of the domestication.
About 6 ml of blood was taken from the heart or the auricular artery of a rabbit experiencing 12 hours' fast prior to the start of the administration, within 4 and 8 weeks of undergoing administration, and on the final day of administration (12th week). The blood was centrifuged to separate blood serum and the blood serum was analyzed for the items shown in Table 1 by the use of an automatic analyzer (made by Hitachi. Ltd. And sold under the product code of "736-20"). The body weight of each rabbit was measured at the rate of once a week throughout the entire duration of the administration.

[3] = TMG 800 mg/head/day for 12 weeks
[4] = blood serum, TMG 800 mg/head/day in feed, 12th week of administration, average ± SE

SMILES: Cc1c(C)c2c(c(C)c1O)CCC(C)(C[C@H]1O[C@H](CO)[C@@H](O)[C@H](O)[C@H]1O)O2 (stereo partly drawn) [TMG, 2-(α-D-glucopyranosyl)methyl-2,5,7,8-tetramethyl chroman-6-ol]
- fatality (ICR mice): None of the mice
- Surface involvement (%) ([1]; area occupied by deposited lipid in whole area of aorta, TMG 800 mg/head/day in feed, 12th week, control 79.7 ± 3.2, p < 0.01): 50.2 ± 5.7 %
- occurrence of the atherosclerosis [1, 3]: significantly repressing
- ALB [2, 4]: 2.3 ± 0.1 g/dL
- ALP [2, 4]: 174 ± 15 mU/ml
- ChE [2, 4]: 0.35 ± 0.06 U/ml
- GOT [2, 4]: 19.7±2.2 mU/ml
- GPT [2, 4]: 72.9 ± 9.1 mU/ml
- LDH [2, 4]: 147 ± 31 mU/ml
- PL [2, 4]: 851 ± 42 mg/dL
- T-CHO [2, 4]: 2628 ± 148 mg/dL
- TG [2, 4]: 250 ± 76 mg/dL
- activity of lowering the blood serum lipids (T-CHO, TG, PL, LDL-CHO) [2, 3]: no activity
- biochemical test of blood [2, 3]: no sign of abnormality
- Body weight ([2]; TMG 800 mg/head/day in feed, 12th week of administration, average ± SE): 2.89 ± 0.11 kg
- rise of the GOT, an index of the development of hepatopathy ([2]; TMG 800 mg/head/day, versus control group): significantly repressing the injury
